From patent US10987359B2, “Oxadiazepinone derivatives and methods of treating hepatitis B infections” (priority 2016, dated 2021) come the findings set out here.

The test system of this assay is HBV. The experiment in a line: HBV replication inhibition assay (BDNA assay) in HepG2.2.15 cells. The assay is classed as cell-based. Particulars: Hepatitis B virus, HepG2.2.15, HBV replication assay (BDNA assay), HepG2.2.15 cells; read-out: DNA EC50. In a few lines: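 HepG2.2.15 cells with stably integrated HBV were treated with serially diluted compounds at 0.5% DMSO for 6 days, with medium and compound refreshed at day 3. Encapsidated HBV DNA from DNase-treated supernatant was quantified by branched DNA assay. EC50 came from % inhibition versus DMSO, fitted non-linearly.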

By EC50 is commonly meant the concentration at which the effect is half-maximal.

On to `C[C@@H]1Cc2nn3c(c2CN1C(=O)Nc1ccc(F)c(C(F)(F)F)c1)C(=O)N(C)OC(CNCC(F)F)C3` (single isomer, unassigned) [Compound 182_D1, (4S*,9R)-4-(((2,2-difluoroethyl)amino)methyl)-N-(4-fluoro-3-(trifluoromethyl)phenyl)-2,9-dimethyl-1-oxo-1,4,5,8,9,11-hexahydropyrido[4′,3′:3,4]pyrazolo[5,1-d][1,2,5]oxadiazepine-10(2H)-carboxamide], for which the EC50 lay within 1 to 100 nM.

Regarding `CN1OC(CF)Cn2nc3c(c2C1=O)CN(C(=O)Nc1cccc(Cl)c1)CC3` (single isomer, unassigned) [Compound 037_E1, (S*)—N-(3-chlorophenyl)-4-(fluoromethyl)-2-methyl-1-oxo-1,4,5,8,9,11-hexahydropyrido[4′,3′:3,4]pyrazolo[5,1-d][1,2,5]oxadiazepine-10(2H)-carboxamide], the EC50 lay within 1 to 100 nM.

In the case of `C[C@@H]1Cc2nn3c(c2CN1C(=O)Nc1ccc(F)c(C#N)c1)C(=O)N(C)N(CC(F)F)CC3` [Compound 221, (R)—N-(3-Cyano-4-fluorophenyl)-3-(2,2-difluoroethyl)-2,9-dimethyl-1-oxo-1,2,3,4,5,8,9,11-octahydro-10H-pyrido[4′,3′:3,4]pyrazolo[5,1-d][1,2,5]triazepine-10-carboxamide], the EC50 was in the range of 1 to 100 nM.

For the compound `CN1O[C@H](C[S@@+](C)[O-])Cn2nc3c(c2C1=O)CN(C(=O)Nc1ccc(F)c(Cl)c1)CC3` (stereo in doubt) [Compound 049_E2, (S*)—N-(3-chloro-4-fluorophenyl)-2-methyl-4-(((R*)-methylsulfinyl)methyl)-1-oxo-1,4,5,8,9,11-hexahydropyrido[4′,3′:3,4]pyrazolo[5,1-d][1,2,5]oxadiazepine-10(2H)-carboxamide], the 50% effective concentration (EC50) lay in the range of 1 to 100 nM.

`[2H]C([2H])([2H])N1OC(CO)Cn2nc3c(c2C1=O)CN(C(=O)Nc1ccc(F)c(Cl)c1)CC3` (stereo not drawn) [Compound 107, N-(3-chloro-4-fluoro-phenyl)-4-(hydroxymethyl)-1-oxo-2-(trideuteriomethyl)-5,8,9,11-tetrahydro-4H-pyrido[2,3]pyrazolo[2,4-d][1,2,5]oxadiazepine-10-carboxamide]: the EC50 was in the range of 1 to 100 nM.

Consider `CN1N=C(C(O)C2CC2)Cn2nc3c(c2C1=O)CN(C(=O)Nc1ccc(F)c(Cl)c1)CC3` (stereo not drawn) [Compound 231, N-(3-chloro-4-fluorophenyl)-4-(cyclopropyl(hydroxy)methyl)-2-methyl-1-oxo-1,2,5,8,9,11-hexahydro-10H-pyrido[4′,3′:3,4]pyrazolo[5,1-d][1,2,5]triazepine-10-carboxamide], for which the EC50 was in the range of 100 to 500 nM.

`C[C@H]1Cc2nn3c(c2CN1C(=O)Nc1ccc(F)c(Cl)c1)C(=O)N(C)O[C@@H](CO)C3` (stereo in doubt) [Compound 069_E2, (4R*,9S*)—N-(3-chloro-4-fluorophenyl)-4-(hydroxymethyl)-2,9-dimethyl-1-oxo-1,4,5,8,9,11-hexahydropyrido[4′,3′:3,4]pyrazolo[5,1-d][1,2,5]oxadiazepine-10(2H)-carboxamide]: the EC50 is 1 to 100 nM.

`CN1O[C@H](CNCC(F)F)Cn2nc3c(c2C1=O)CN(C(=O)Nc1ccc(F)c(C(F)(F)F)c1)CC3` (stereo in doubt) [Compound 194_E1, (S*)-4-4(2,2-difluoroethyl)amino)methyl)-N-(4-fluoro-3-(trifluoromethyl)phenyl)-2-methyl-1-oxo-1,4,5,8,9,11-hexahydropyrido[4′,3′:3,4]pyrazolo[5,1-d][1,2,5]oxadiazepine-10(2H)-carboxamide]: the EC50 fell in the range of 1 to 100 nM.

Consider `CN1OC(CO)Cn2nc3c(c2C1=O)CN(C(=O)Nc1cccc(C#N)c1F)CC3` (single isomer, unassigned) [Compound 146_E1, (S*)—N-(3-cyano-2-fluorophenyl)-4-(hydroxymethyl)-2-methyl-1-oxo-1,4,5,8,9,11-hexahydropyrido[4′,3′:3,4]pyrazolo[5,1-d][1,2,5]oxadiazepine-10(2H)-carboxamide], for which the EC50 lay in the range of 1 to 100 nM.
